This assay has as its target T1, human TLR7 (Homo sapiens, UniProt Q9NYK1).
T1 sequence (Q9NYK1 27-1049): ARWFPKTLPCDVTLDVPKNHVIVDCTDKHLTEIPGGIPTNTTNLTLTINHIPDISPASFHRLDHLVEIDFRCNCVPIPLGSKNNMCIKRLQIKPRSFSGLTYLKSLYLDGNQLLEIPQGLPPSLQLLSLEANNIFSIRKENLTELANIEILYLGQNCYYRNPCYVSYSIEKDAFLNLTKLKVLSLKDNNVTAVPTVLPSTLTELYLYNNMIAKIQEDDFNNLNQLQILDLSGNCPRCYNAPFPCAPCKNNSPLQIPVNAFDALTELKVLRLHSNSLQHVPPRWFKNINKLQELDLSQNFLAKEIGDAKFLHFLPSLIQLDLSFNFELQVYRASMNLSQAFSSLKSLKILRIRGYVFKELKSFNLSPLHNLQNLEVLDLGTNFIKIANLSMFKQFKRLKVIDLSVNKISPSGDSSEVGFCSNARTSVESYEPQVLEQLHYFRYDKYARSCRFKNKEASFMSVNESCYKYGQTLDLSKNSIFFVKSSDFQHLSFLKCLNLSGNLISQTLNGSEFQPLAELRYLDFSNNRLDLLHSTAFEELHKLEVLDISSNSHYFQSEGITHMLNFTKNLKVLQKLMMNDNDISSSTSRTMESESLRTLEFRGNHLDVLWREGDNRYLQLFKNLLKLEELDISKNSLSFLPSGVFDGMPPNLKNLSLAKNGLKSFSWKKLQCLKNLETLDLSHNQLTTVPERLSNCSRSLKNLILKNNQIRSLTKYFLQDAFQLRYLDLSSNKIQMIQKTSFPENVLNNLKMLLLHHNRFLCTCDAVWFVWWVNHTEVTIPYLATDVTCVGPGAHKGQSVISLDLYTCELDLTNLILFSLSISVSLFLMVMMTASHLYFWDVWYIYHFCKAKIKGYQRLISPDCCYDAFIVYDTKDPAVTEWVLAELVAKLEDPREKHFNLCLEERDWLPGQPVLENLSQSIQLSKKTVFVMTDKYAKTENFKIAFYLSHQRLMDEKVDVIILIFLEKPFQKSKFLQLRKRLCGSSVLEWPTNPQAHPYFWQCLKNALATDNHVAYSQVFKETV
The assay is described as follows: HEK293-Blue-hTLR-7 cells assay (SEAP reporter, R848 stimulation). The assay is classed as cell-based. Conditions: HEK293-Blue-hTLR7 cells, R848 ligand, 20 hrs incubation; read-out: HEK/hTLR7 IC50. How it is done: The following tests were carried out in order to determine the activity of the compounds of formula (I) in HEK293-Blue-hTLR-7/8/9 cells assay.
A stable HEK293-Blue-hTLR-7 cell line was purchased from InvivoGen (Cat.#: hkb-htlr7, San Diego, California, USA). These cells were originally designed for studying the stimulation of human TLR7 by monitoring the activation of NF-κB. A SEAP (secreted embryonic alkaline phosphatase) reporter gene was placed under the control of the IFN-β minimal promoter fused to five NF-κB and AP-1-binding sites. The SEAP was induced by activating NF-κB and AP-1 via stimulating HEK-Blue hTLR7 cells with TLR7 ligands. Therefore the reporter expression was declined by TLR7 antagonist under the stimulation of a ligand, such as R848 (Resiquimod), for incubation of 20 hrs. The cell culture supernatant SEAP reporter activity was determined using QUANTI-Blue™ kit (Cat.#: rep-qb1, Invivogen, San Diego, Ca, USA) at a wavelength of 640 nm, a detection medium that turns purple or blue in the presence of alkaline phosphatase.
HEK293-Blue-hTLR7 cells were incubated at a density of 250,000˜450,000 cells/mL in a volume of 170 μL in a 96-well plate in Dulbecco's Modified Eagle's medium (DMEM) containing 4.5 g/L glucose, 50 U/mL penicillin, […], […], 2 mM L-glutamine, 10% (v/v) heat-inactivated fetal bovine serum with addition of 20 μL test compound in a serial dilution in the presence of final DMSO at 1% and 10 μL of 20 uM R848 in above DMEM, perform incubation under 37° C. in a CO2 incubator for 20 hrs. Then 20 μL of the supernatant from each well was incubated with […] Quanti-blue substrate solution at 37° C. for 2 hrs and the absorbance was read at 620-655 nm using a spectrophotometer. The signalling pathway that TLR7 activation leads to downstream NF-κB activation has been widely accepted, and therefore similar reporter assay was modified for evaluating TLR7 antagonist.

For `C[C@@H]1CN(c2ccc(C#N)c3ncccc23)C[C@H](C)N1Cc1ccc(N2CCNCC2)cc1` [Example 1, 5-[(3R,5S)-3,5-Dimethyl-4-[(4-piperazin-1-ylphenyl)methyl]piperazin-1-yl]quinoline-8-carbonitrile], the IC50 came out at 0.053 µM.
With `C[C@@H]1CN(c2ccc(C#N)c3ncccc23)C[C@@H](C)N1Cc1ccc(N2CCNCC2)cc1` [Example 2], the IC50 turned out to be 0.087 µM.
Then `C[C@@H]1CN(c2ccc(C#N)c3ncccc23)C[C@H](C)N1Cc1ccc(N2CCNCC2)nc1` [Example 3, 5-[(3R,5S)-3,5-Dimethyl-4-[(6-piperazin-1-yl-3-pyridyl)methyl]piperazin-1-yl]quinoline-8-carbonitrile], with 0.019 µM.
For the compound `C[C@@H]1CN(c2ccc(C#N)c3ncccc23)C[C@H](C)N1Cc1ncc(N2CCNCC2)cn1` [Example 4, 5-[(3S,5R)-3,5-Dimethyl-4-[(5-piperazin-1-ylpyrimidin-2-yl)methyl]piperazin-1-yl]quinoline-8-carbonitrile], the IC50 turned out to be 0.016 µM.
For `C[C@@H]1CN(c2ccc(C#N)c3ncccc23)C[C@H](C)N1Cc1ccc(N2CCNCC2)cn1` [Example 5, 5-[(3S,5R)-3,5-Dimethyl-4-[(5-piperazin-1-yl-2-pyridyl)methyl]piperazin-1-yl]quinoline-8-carbonitrile] the value was 0.012 µM.
For `C[C@@H]1CN(c2ccc(C#N)c3ncccc23)C[C@H](C)N1Cc1ncc(N2CCN(C(=O)CN(C)C)CC2)cn1` [Example 6, 5-[(3S,5R)-4-[[5-[4-[2-(Dimethylamino)acetyl]piperazin-1-yl]pyrimidin-2-yl]methyl]-3,5-dimethyl-piperazin-1-yl]quinoline-8-carbonitrile] the value was 0.067 µM; for `C[C@@H]1CN(c2ccc(C#N)c3ncccc23)C[C@H](C)N1Cc1ccc(N2CCN(C)CC2)cn1` [Example 7, 5-[(3S,5R)-3,5-dimethyl-4-[[5-(4-methylpiperazin-1-yl)-2-pyridyl]methyl]piperazin-1-yl]quinoline-8-carbonitrile], 0.03 µM; for `C[C@@H]1CN(c2ccc(C#N)c3ncccc23)C[C@H](C)N1Cc1ccc(N2CC3CNCC(C2)O3)cn1` [Example 8, 5-[(3S,5R)-3,5-Dimethyl-4-[[5-(9-oxa-3,7-diazabicyclo[3.3.1]nonan-3-yl)-2-pyridyl]methyl]piperazin-1-yl]quinoline-8-carbonitrile], 0.078 µM.
Then `C[C@@H]1CN(c2ccc(C#N)c3ncccc23)C[C@H](C)N1Cc1ccc(N[C@@H]2CNC[C@@H]2F)cn1` [Example 9, 5-[(3R,5S)-3,5-Dimethyl-4-[[5-[[(3R,4S)-4-fluoropyrrolidin-3-yl]amino]-2-pyridyl]methyl]piperazin-1-yl]quinoline-8-carbonitrile], with 0.051 µM.
Regarding `C[C@@H]1CN(c2ccc(C#N)c3ncccc23)C[C@H](C)N1Cc1ccc(N2CCN(C(=O)C3CCCN3)CC2)cn1` (stereo partly drawn) [Example 10, 5-[(3R,5S)-3,5-Dimethyl-4-[[5-[4-(pyrrolidine-2-carbonyl)piperazin-1-yl]-2-pyridyl]methyl]piperazin-1-yl]quinoline-8-carbonitrile], the IC50 was 0.069 µM.
Then `C[C@@H]1CN(c2ccc(C#N)c3ncccc23)C[C@H](C)N1Cc1ccc(N2CCN(C(=O)CN(C)C)CC2)cn1` [Example 11, 5-[(3S,5R)-4-[[5-[4-[2-(Dimethylamino)acetyl]piperazin-1-yl]-2-pyridyl]methyl]-3,5-dimethyl-piperazin-1-yl]quinoline-8-carbonitrile], with 0.05 µM; and `C[C@@H]1CN(c2ccc(C#N)c3ncccc23)C[C@H](C)N1Cc1ccc(N2CCNCC2CO)cc1` (stereo partly drawn) [Example 12, 5-[(3R,5S)-4-[[4-[2-(Hydroxymethyl)piperazin-1-yl]phenyl]methyl]-3,5-dimethyl-piperazin-1-yl]quinoline-8-carbonitrile], with 0.087 µM; and `C[C@@H]1CN(c2ccc(C#N)c3ncccc23)C[C@H](C)N1CC(=O)N1CCc2nc(N3CCNCC3)ccc2C1` [Example 13, 5-[(3R,5S)-3,5-Dimethyl-4-[2-oxo-2-(2-piperazin-1-yl-7,8-dihydro-5H-1,6-naphthyridin-6-yl)ethyl]piperazin-1-yl]quinoline-8-carbonitrile], with 0.056 µM.
Then `C[C@@H]1CN(c2ccc(C#N)c3ncccc23)C[C@H](C)N1CC(=O)N1CCc2cc(N3CCNCC3)ccc2C1` [Example 14, 5-[(3R,5S)-3,5-Dimethyl-4-[2-oxo-2-(6-piperazin-1-yl-3,4-dihyrdo-1H-isoquinolin-2-yl)ethyl]piperazin-1-yl]quinoline-8-carbonitrile], with 0.08 µM; and `C[C@@H]1CN(c2ccc(C#N)c3ncccc23)C[C@H](C)N1CC(=O)N1CCc2ccc(N3CCNCC3)cc2C1` [Example 15, 5-[(3R,5S)-3,5-dimethyl-4-[2-pxp-2-(7-piperazin-1-yl-3,4-dihydro-1H-isoquinolin-2-yl)ethyl]piperazin-1-yl]quinoline-8-carbonitrile], with 0.067 µM; and `C[C@@H]1CN(c2ccc(C#N)c3ncccc23)C[C@H](C)N1CC(=O)N1Cc2ccc(N3CCNCC3)cc2C1` [Example 16, 5-[(3R,5S)-3,5-Dimethyl-4-[2-oxo-2-(5-piperazin-1-ylisoindolin-2-yl)ethyl]piperazin-1-yl]quinoline-8-carbonitrile], with 0.035 µM.
Then `CC1CN(c2ccc(C#N)c3ncccc23)CCN1CC(=O)Nc1ccc(N2CCNCC2)cc1` (stereo not shown) [Example 17, 2-[4-(8-Cyano-5-quinolyl)-2-methyl-piperazin-1-yl]-N-(4-piperazin-1-ylpheny)acetamide], with 0.088 µM; and `CC1CN(c2ccc(C#N)c3ncccc23)CCN1CC(=O)Nc1ccc2c(c1)CCNC2` (stereo not shown) [Example 18, 2-[4-(8-Cyano-5-quinolyl)-2-methyl-piperazin-1yl]-N-(1,2,3,4-tetrahydroisoquinolin-6-yl)acetamide], with 0.06 µM; and `CC1CN(c2ccc(C#N)c3ncccc23)CCN1CC(=O)N1CCC(C2CCN(C)CC2)CC1` (stereo not shown) [Example 19, 5-[3-methyl-4-[2-[4-(1-methyl-4-piperidyl)-1-piperidyl]-2-oxo-ethyl]piperazin-1-yl]quinoline-8-carbonitrile], with 0.057 µM.
